# Values quoted from earlier work, collected in US11083740B2, “Cancer therapy” (NED Biosystems, Inc., priority 2013, dated 2021).
# Columns and labels:
# [1] = in vivo
# [2] = test system: HUVECs
# [3] = test system: pancreatic carcinoma cells
# [4] = test system: hormone refractory PC-3 prostate cancer cells; conditions: PC-3 cells
# [5] = in vivo; remark: listed apart in the source
# [6] = in vivo; remark: listed apart in the source
# [7] = test system: cultured bovine granulosa cells; conditions: AMPK-dependent mechanism
# [8] = test system: HUVECs; conditions: partially AMPK-dependent
compound,measurement,setting,value
"O=C(O)CCCCC1CCSS1 (stereo not drawn) [Alpha-Lipoic Acid, 1,2-dithiolane-3-pentanoic acid]",bioavailability when taken with a meal,[1],decreases
"COc1ccc2[nH]cc(CCNC(C)=O)c2c1 [Melatonin, N-acetyl-5-methoxytryptamine]",cell proliferation and migration,[2],inhibits
same,VEGF protein secreted and produced,[3],decreases
O=c1c(-c2ccc(O)cc2)coc2cc(O)cc(O)c12 [Genistein],IGF-1-stimulated cell growth,[4],significant inhibition
CC(C)[C@@H](CC[C@@H](C)[C@H]1CC[C@H]2[C@@H]3[C@H](O)C[C@H]4C[C@@H](NCCCNCCCCN)CC[C@]4(C)[C@H]3CC[C@]12C)OS(=O)(=O)O [Squalamine],oral bioavailability,[5],does not have high oral bioavailability
same,maximum tolerated dose (MTD),[6],300 mg/m2/day
[Met(5)]-enkephalin [Opioid Growth Factor [Met(5)]-enkephalin],toxicity of metronomic dosing,50 μg/kg injected subcutaneously twice daily,no toxicity
same,maximum tolerated dose,30-minute intravenous infusion once or twice weekly,0.25 mg/kg
CN(C)C(=N)N=C(N)N [Metformin],response to IGF1,[7],"reducing cell growth, protein synthesis, MAPK3/1, and P90RSK phosphorylation"
same,"proliferation, migration, and MMP-2 and -9 expression",[8],strongly inhibited
